Measurements: the Kinase Knowledgebase extract (Sharma et al. 2016)
“And” between values parts separate entries of the source, which are not always exact repeats. Identical values can stand only once.

molecular target: MAPK14 (UniProt Q16539); assay: Inhibition of MAPK14 Kinase Activity
Sequence (Q16539 whole entry, looked up): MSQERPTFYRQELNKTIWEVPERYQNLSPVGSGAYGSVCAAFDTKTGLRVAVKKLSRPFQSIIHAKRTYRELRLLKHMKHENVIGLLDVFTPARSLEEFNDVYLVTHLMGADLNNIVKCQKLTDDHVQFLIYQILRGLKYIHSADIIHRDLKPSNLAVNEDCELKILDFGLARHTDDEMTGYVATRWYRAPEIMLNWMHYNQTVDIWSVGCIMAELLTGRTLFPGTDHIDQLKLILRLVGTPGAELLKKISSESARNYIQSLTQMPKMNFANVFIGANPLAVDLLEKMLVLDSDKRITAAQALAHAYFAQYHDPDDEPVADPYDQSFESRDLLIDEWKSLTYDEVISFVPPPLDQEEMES

IC50 | Compound
< 5 µM | Cn1nc(C(C)(C)C)cc1NC(=O)Nc1cc(F)cc(OC2CCN(C(=O)c3c(Cl)cncc3Cl)CC2)c1
< 5 µM | COc1ccc(C(=O)N2CCC(Oc3ccc(NC(=O)Nc4cc(C(C)(C)C)nn4C)cc3)CC2)cn1
< 5 µM | COc1ccccc1C(=O)N1CCN(Cc2ccc(NC(=O)Nc3cc(C(C)(C)C)nn3C)cc2)CC1
< 5 µM | Cc1ccc(-n2nc(C(C)(C)C)cc2NC(=O)Nc2ccc(OC3CCN(C(=O)c4c(Cl)cccc4Cl)CC3)c3ccccc23)cc1
< 5 µM | Cn1nc(C(C)(C)C)cc1NC(=O)Nc1ccc(CN2CCN(C(=O)c3ccncc3)CC2)cc1
< 5 µM | Cn1nc(C(C)(C)C)cc1NC(=O)Nc1cccc(OC2CCN(C(=O)c3c(F)cccc3F)CC2)c1
< 5 µM | CC(C)(C)c1cc(NC(=O)Nc2ccc(CN3CCN(C(=O)c4c(F)cccc4F)CC3)c(F)c2)n(C(C)(C)C)n1
< 5 µM | Cc1ccc(-n2nc(C(C)(C)C)cc2NC(=O)Nc2ccc(N3CCN(C(=O)CC(C)(C)C)CC3)cc2)cc1
< 5 µM | Cn1nc(C(C)(C)C)cc1NC(=O)Nc1ccc(OC2CCN(C(=O)Oc3ccccc3C(F)(F)F)CC2)cc1
< 5 µM | CC(C)n1nc(C(C)(C)C)cc1NC(=O)Nc1ccc(CN2CCN(C(=O)c3c(F)cccc3F)CC2)cc1
< 5 µM | COc1ccc(C(=O)N2CCC(Oc3cccc(NC(=O)Nc4cc(C(C)(C)C)nn4C)c3)CC2)c(OC)n1
< 5 µM | Cn1nc(C(C)(C)C)cc1NC(=O)Nc1cc(F)cc(OC2CCN(C(=O)c3cccc4[nH]ccc34)CC2)c1
< 5 µM | Cc1ccc(-n2nc(C(C)(C)C)cc2NC(=O)Nc2cc(F)cc(OC3CCN(C(=O)c4ccccc4F)CC3)c2)cc1
< 5 µM | Cn1nc(C(C)(C)C)cc1NC(=O)Nc1ccc(OC2CCN(C(=O)C3(c4ccccc4)CC3)CC2)cc1
< 5 µM | Cn1nc(C(C)(C)C)cc1NC(=O)Nc1cc(OC2CCN(C(=O)c3c(F)cccc3F)CC2)cc(C(F)(F)F)c1
< 5 µM | Cn1nc(C(C)(C)C)cc1NC(=O)Nc1cc(F)cc(OC2CCN(C(=O)c3ccccc3F)CC2)c1
< 5 µM | Cc1ccc(-n2nc(C(C)(C)C)cc2NC(=O)Nc2ccc(N3CCN(S(=O)(=O)C(C)C)CC3)cc2)cc1
< 5 µM | Cn1nc(C(C)(C)C)cc1NC(=O)Nc1cccc(OC2CCN(C(=O)c3ccccc3C(F)(F)F)CC2)c1
< 5 µM | Cc1ccc(-n2nc(C(C)(C)C)cc2NC(=O)Nc2ccc(CN3CCN(C(=O)c4c(Cl)cccc4Cl)CC3)cc2)cc1
< 5 µM | Cn1nc(C(C)(C)C)cc1NC(=O)Nc1ccc(CN2CCN(C(=O)c3ccc(F)cc3Cl)CC2)cc1
< 5 µM | CC(C)n1nc(C(C)(C)C)cc1NC(=O)Nc1ccc(CN2CCN(C(=O)c3ccc(F)cc3F)CC2)c(F)c1

IC50 | Compound
< 5 µM | Cc1ccc(-n2nc(C(C)(C)C)cc2NC(=O)Nc2ccc(N3CCN(C(=O)C4CC4C)CC3)cc2)cc1 (stereo not drawn)
< 5 µM | Cc1ccc(-n2nc(C(C)(C)C)cc2NC(=O)Nc2cc(F)cc(OC3CCN(C(=O)C4CC4)CC3)c2)cc1
< 5 µM | Cn1nc(C(C)(C)C)cc1NC(=O)Nc1cc(F)cc(OC2CCN(C(=O)c3sccc3Cl)CC2)c1
< 5 µM | Cn1nc(C(C)(C)C)cc1NC(=O)Nc1ccc(OC2CCN(C(=O)c3c[nH]cn3)CC2)cc1
< 5 µM | Cn1nc(C(C)(C)C)cc1NC(=O)Nc1cccc(OC2CCN(C(=O)c3cc[nH]c3)CC2)c1
< 5 µM | Cn1nc(C(C)(C)C)cc1NC(=O)Nc1cc(F)cc(OC2CCN(C(=O)C3(C)CC3(Cl)Cl)CC2)c1 (stereo not drawn)
< 5 µM | Cn1nc(C(C)(C)C)cc1NC(=O)Nc1cc(F)cc(OC2CCN(C(=O)c3cccc4cc[nH]c34)CC2)c1
< 5 µM | Cc1ccc(-n2nc(C(C)(C)C)cc2NC(=O)Nc2ccc(N3CCN(C(=O)C4CC4)CC3)cc2)cc1
< 5 µM | Cc1ccc(-n2nc(C(C)(C)C)cc2NC(=O)Nc2ccc(CN3CCN(C(=O)C4CC4)CC3)cc2)cc1
< 5 µM | Cn1nc(C(C)(C)C)cc1NC(=O)Nc1cc(F)cc(OC2CCN(C(=O)c3c[nH]c4ccccc34)CC2)c1
< 5 µM | Cc1ccc(-n2nc(C(C)(C)C)cc2NC(=O)Nc2ccc(N3CCN(C(N)=O)CC3)cc2)cc1
< 5 µM | CN1CCN(Cc2ccc(C(=O)N3CCC(Oc4cc(F)cc(NC(=O)Nc5cc(C(C)(C)C)nn5C)c4)CC3)cc2)CC1
< 5 µM | COc1cccc(F)c1C(=O)N1CCC(Oc2cc(F)cc(NC(=O)Nc3cc(C(C)(C)C)nn3C)c2)CC1
< 5 µM | Cn1nc(C(C)(C)C)cc1NC(=O)Nc1cccc(OC2CCN(C(=O)c3ccc(Cl)s3)CC2)c1
< 5 µM | Cc1ccc(-n2nc(C(C)(C)C)cc2NC(=O)Nc2ccc(N3CCN(C(=O)c4c(Cl)cccc4Cl)CC3)cc2)cc1
< 5 µM | Cc1ccc(-n2nc(C(C)(C)C)cc2NC(=O)Nc2ccc(N3CCN(C(=O)C4CCCNC4)CC3)cc2)cc1 (stereo not drawn)
< 5 µM | Cc1ccc(OC2CCN(C(=O)c3ccccc3Cl)CC2)cc1NC(=O)Nc1cc(C(C)(C)C)nn1C
< 5 µM | Cn1nc(C(C)(C)C)cc1NC(=O)Nc1ccc(OC2CCN(C(=O)c3cc[nH]c3)CC2)cc1
< 5 µM | Cc1ccc(-n2nc(C(C)(C)C)cc2NC(=O)Nc2ccc(CN3CCN(C(=O)c4c(F)cccc4F)CC3)cc2)cc1
0.091 µM | Cc1ccc(-n2nc(C(C)(C)C)cc2NC(=O)Nc2ccc(N3CCN(C(=O)C(C)(C)C)CC3)cc2)cc1
< 5 µM | Cn1nc(C(C)(C)C)cc1NC(=O)Nc1ccc(OC2CCN(C(=O)c3ccccc3Cl)CC2)cc1

IC50 | Compound
< 5 µM | Cn1nc(C(C)(C)C)cc1NC(=O)Nc1cc(F)cc(OC2CCN(C(=O)c3ccc4[nH]ccc4c3)CC2)c1
< 5 µM | COc1ccc(C(=O)N2CCC(Oc3ccc(NC(=O)Nc4cc(C(C)(C)C)nn4C)cc3)CC2)c(OC)n1
< 5 µM | Cn1nc(C(C)(C)C)cc1NC(=O)Nc1ccc(CN2CCN(C(=O)c3ccccc3Cl)CC2)cc1
< 5 µM | CC(=O)N1CCN(Cc2ccc(NC(=O)Nc3cc(C(C)(C)C)nn3-c3ccc(C)cc3)cc2)CC1
< 5 µM | Cc1ccc(-n2nc(C(C)(C)C)cc2NC(=O)Nc2ccc(N3CCN(C(=O)CC4CCCC4)CC3)cc2)cc1
< 5 µM | Cn1nc(C(C)(C)C)cc1NC(=O)Nc1cccc(OC2CCN(C(=O)c3ccccc3OC(F)(F)F)CC2)c1
< 5 µM | Cn1nc(C(C)(C)C)cc1NC(=O)Nc1ccc(OC2CCN(C(=O)c3cccnc3Cl)CC2)cc1
< 5 µM | Cn1nc(C(C)(C)C)cc1NC(=O)Nc1cc(F)cc(OC2CCN(C(=O)C3CC3)CC2)c1
< 5 µM | CC(C)n1nc(C(C)(C)C)cc1NC(=O)Nc1ccc(CN2CCN(C(=O)c3c(Cl)cccc3Cl)CC2)cc1
< 5 µM | Cn1nc(C(C)(C)C)cc1NC(=O)Nc1ccc(OC2CCN(C(=O)C3CCCC3)CC2)cc1
< 5 µM | Cn1nc(C(C)(C)C)cc1NC(=O)Nc1ccc(N2CCN(C(=O)c3c(Cl)cccc3Cl)CC2)cc1
< 5 µM | Cn1nc(C(C)(C)C)cc1NC(=O)Nc1cccc(C2CCN(C(=O)c3c(Cl)cccc3Cl)CC2)c1
< 5 µM | CC(C)n1nc(C(C)(C)C)cc1NC(=O)Nc1ccc(CN2CCN(C(=O)c3c(Cl)cccc3Cl)CC2)cc1F
< 5 µM | Cn1nc(C(C)(C)C)cc1NC(=O)Nc1cccc(OC2CCN(C(=O)c3c(Cl)cncc3Cl)CC2)c1
< 5 µM | Cn1nc(C(C)(C)C)cc1NC(=O)Nc1ccc(OC2CCN(C(=O)C(C)(C)C)CC2)cc1
< 5 µM | Cn1nc(C(C)(C)C)cc1NC(=O)Nc1cc(F)cc(OC2CCN(C(=O)c3ccccc3)CC2)c1
< 5 µM | Cn1nc(C(C)(C)C)cc1NC(=O)Nc1cc(F)cc(OC2CCN(C(=O)c3cc[nH]c3)CC2)c1
< 5 µM | CN(C)CCOc1ccc(C(=O)N2CCC(Oc3cc(F)cc(NC(=O)Nc4cc(C(C)(C)C)nn4C)c3)CC2)cc1
< 5 µM | CO[C@H](C)C(=O)N1CCN(c2ccc(NC(=O)Nc3cc(C(C)(C)C)nn3-c3ccc(C)cc3)cc2)CC1
< 5 µM | Cc1ccc(-n2nc(C(C)(C)C)cc2NC(=O)Nc2ccc(OC3CCN(C(=O)c4c(Cl)cccc4Cl)CC3)cc2)cc1
< 5 µM | Cn1nc(C(C)(C)C)cc1NC(=O)Nc1ccc(CN2CCN(C(=O)c3ccc(F)cc3)CC2)cc1

IC50 | Compound
< 5 µM | Cn1nc(C(C)(C)C)cc1NC(=O)Nc1ccc(CN2CCN(C(=O)c3c(F)cccc3F)CC2)cc1F
< 5 µM | CC(C)C(=O)N1CCC(Oc2ccc(NC(=O)Nc3cc(C(C)(C)C)nn3C)cc2)CC1
< 5 µM | Cn1nc(C(C)(C)C)cc1NC(=O)Nc1cc(OC2CCN(C(=O)c3ccccc3Cl)CC2)cc(C(F)(F)F)c1
< 5 µM | Cn1nc(C(C)(C)C)cc1NC(=O)Nc1ccc(OC2CCN(C(=O)c3ccccc3)CC2)cc1
< 5 µM | CCCC(C)(C)C(=O)N1CCN(c2ccc(NC(=O)Nc3cc(C(C)(C)C)nn3-c3ccc(C)cc3)cc2)CC1
0.01 µM and < 5 µM | Cn1nc(C(C)(C)C)cc1NC(=O)Nc1ccc(CN2CCN(C(=O)c3c(F)cccc3F)CC2)cc1
< 5 µM | Cn1nc(C(C)(C)C)cc1NC(=O)Nc1ccc(OC2CCN(C(=O)c3ccccc3F)CC2)cc1
< 5 µM | Cn1nc(C(C)(C)C)cc1NC(=O)Nc1cccc(OC2CCN(C(=O)c3c(F)cccc3Cl)CC2)c1
< 5 µM | Cn1nc(C(C)(C)C)cc1NC(=O)Nc1cccc(OC2CCN(C(=O)c3sccc3Cl)CC2)c1
< 5 µM | Cc1ccc(-n2nc(C(C)(C)C)cc2NC(=O)Nc2ccc(N3CCN(C(=O)C4CCOC4)CC3)cc2)cc1 (stereo not drawn)
< 5 µM | Cc1ccsc1C(=O)N1CCC(Oc2ccc(NC(=O)Nc3cc(C(C)(C)C)nn3C)cc2)CC1
< 5 µM | Cn1nc(C(C)(C)C)cc1NC(=O)Nc1ccc(CN2CCN(C(=O)c3ccc(Cl)cc3Cl)CC2)cc1
< 5 µM | Cn1nc(C(C)(C)C)cc1NC(=O)Nc1cc(F)cc(OC2CCN(C(=O)c3ccccc3Cl)CC2)c1
< 5 µM | COc1ccc(C(=O)N2CCC(Oc3cc(F)cc(NC(=O)Nc4cc(C(C)(C)C)nn4C)c3)CC2)c(OC)n1
< 5 µM | Cn1nc(C(C)(C)C)cc1NC(=O)Nc1ccc(OC2CCN(S(C)(=O)=O)CC2)cc1
< 5 µM | Cc1ccc(-n2nc(C(C)(C)C)cc2NC(=O)Nc2ccc(N3CCN(C(=O)c4c(F)cccc4F)CC3)cc2)cc1
< 5 µM | Cc1ccc(-n2nc(C(C)(C)C)cc2NC(=O)Nc2ccc(OCCC3CCN(C(=O)c4c(Cl)cccc4Cl)CC3)c3ccccc23)cc1
< 5 µM | Cn1nc(C(C)(C)C)cc1NC(=O)Nc1ccc(CN2CCN(C(=O)c3ccc(F)cc3F)CC2)c(F)c1
< 5 µM | COc1cccc(F)c1C(=O)N1CCC(Oc2cccc(NC(=O)Nc3cc(C(C)(C)C)nn3C)c2)CC1
< 5 µM | Cn1nc(C(C)(C)C)cc1NC(=O)Nc1ccc(OC2CCN(C(=O)C3CC3)CC2)cc1
